The source of these data is PubChem BioAssay AID686930 (Broad Institute, 2013).

SMILES strings stand for the structures. Several values for one entry are separate records, joined by “and”; a condition that tells them apart may be missing. Identical values can stand only once. Activity calls are given as the source filed them. How the calls were made is not given here. Bounds are passed on as bounds.

For test [1], the system named is V. cholerae WN1103 ΔluxQ, lux luminescence, 6 h. The test is described as follows: Confirmatory dose response, V. cholerae WN1103 δluxq inducers of light production, absence of autoinducers (AID 686930).
Assay in test [2]: as above
The conditions noted are these: V. cholerae WN1103 ΔluxQ, lux luminescence, 6 h.

Turning to `O=c1ncn(-c2cc(Cl)cc(Cl)c2)c2ccccc12`, the AC40 in test [1] was 1.09 µM.
For `O=C(Nc1nnc(-c2ccc3c(c2)OCCO3)o1)C1CCCC1`, in test [2] (at 80 µM (top of the series)), the light induction (activation) was 0.121% (inactive).
In the case of `O=C(Nc1nnc(C2CCCC2)o1)C1CCCCC1`, the light induction (activation) in test [2] (at 100 µM (top of the series)) was 0.003% (inactive).
Consider `O=C(Nc1nnc(-c2cccc(Cl)c2)o1)C1CCCCC1`, for which the light induction (activation) in test [2] (at 80 µM (top of the series)) was 0.053% (inactive).
For the molecule `Cc1ccc2cc3c(NC(=O)c4cccs4)nn(C)c3nc2c1`, the AC40 in test [1] was > 80 µM (inactive).
For the molecule `Cc1ccc(-n2cnc(=O)c3ccccc32)cc1Cl`, in test [2] (at 80 µM (top of the series)), the light induction (activation) is 0.708% (inactive).
For `Cc1ccc2cc3c(NC(=O)c4ccccn4)nn(C)c3nc2c1`, in test [2] (at 100 µM (top of the series)), the light induction (activation) is -0.007% (inactive).
With `COC(=O)c1ccccc1Nc1cccc(Cl)c1`, the light induction (activation) in test [2] (at 80 µM (top of the series)) is 0.819% (inactive).
With `O=S(=O)(Nc1nnc(-c2ccc3c(c2)OCCO3)o1)c1ccc(Cl)cc1`, in test [2] (at 100 µM (top of the series)), the light induction (activation) was -0.019% (inactive).
In the case of `O=c1ncn(-c2cccc(Cl)c2)c2ccccc12`, the AC40 in test [1] was 0.0667 µM and 0.362 µM.
`O=C(CSc1nc2c(c(=O)[nH]1)CCCC2)NC1CCCCC1`: in test [2] (at 80 µM (top of the series)), the light induction (activation) is 1.52% (inactive).
As to `Cc1ccc2cc3c(NC(=O)C4CCCC4)nn(C)c3nc2c1`, the AC40 in test [1] is 59.3 µM.
As for `O=C1C(=O)N(Cc2ccccc2Cl)c2ccccc21`, the light induction (activation) in test [2] (at 80 µM (top of the series)) was 0.599% (inactive).
For `COc1cccc(-c2nnc(NC(=O)C3CCCCC3)o2)c1`, in test [2] (at 100 µM (top of the series)), the light induction (activation) was 0.041% (inactive).
Still for that read-out and setting: under `COc1ccc(-c2nnc(NC(C)=O)o2)cc1` stands 0.052% (inactive).
As for `Cc1cc(F)cc2nc3c(cc12)c(NC(=O)c1ccco1)nn3C`, the AC40 in test [1] is 27.1 µM.
Regarding `O=c1nc(Cc2ccccc2)n(-c2cccc(Cl)c2)c2ccccc12`, the light induction (activation) in test [2] (at 80 µM (top of the series)) was 17.7% (inactive).
On the same count and under the same terms, under `O=c1nc(-c2ccccc2)n(-c2cccc(Cl)c2)c2ccccc12` stands -0.003% (inactive).
`CCc1ccc2cc3c(NC(=O)c4ccco4)nn(C)c3nc2c1`: in test [1], the AC40 is 42.1 µM.
For `Cc1ccc2c(=O)ncn(-c3cccc(Cl)c3)c2c1`, the light induction (activation) in test [2] (at 80 µM (top of the series)) was 0.092% (inactive).
As to `CN(C)/C=N/c1nnc(-c2ccc3c(c2)OCCO3)o1`, the light induction (activation) in test [2] (at 100 µM (top of the series)) was 0.028% (inactive).
For `Cc1cc2nc3c(cc2cc1F)c(NC(=O)c1ccco1)nn3C`, the AC40 in test [1] was 57.3 µM.
Take `O=c1ncn(-c2cccc(F)c2)c2ccccc12`: the AC40 in test [1] is 0.302 µM.
Turning to `Cc1ccc2cc3c(NC(=O)c4ccoc4)nn(C)c3nc2c1`, the light induction (activation) in test [2] (at 80 µM (top of the series)) was 6.06% (inactive).
In the case of `COc1ccc(-n2cnc(=O)c3ccccc32)cc1Cl`, in test [2] (at 80 µM (top of the series)), the light induction (activation) was 1.24% (inactive).
With `COc1ccc(S(=O)(=O)Nc2nnc(-c3ccc4c(c3)OCCO4)o2)cc1`, in test [2] (at 100 µM (top of the series)), the light induction (activation) was -0.015% (inactive).
Take `Cc1cc2cc3c(NC(=O)c4ccco4)nn(C)c3nc2cc1C`: the AC40 in test [1] is 71.7 µM.
`Cc1ccc2cc3c(NC(=O)Cc4ccco4)nn(C)c3nc2c1`: in test [2] (at 100 µM (top of the series)), the light induction (activation) was 0.668% (inactive).
In the case of `COc1ccc2c(=O)ncn(-c3cccc(Cl)c3)c2c1`, in test [2] (at 80 µM (top of the series)), the light induction (activation) is 0.054% (inactive).
For the molecule `c1ccc(CNc2nnc(-c3ccc4c(c3)OCCO4)o2)cc1`, the light induction (activation) in test [2] (at 100 µM (top of the series)) was 0.006% (inactive).
Regarding `Cn1nc(NC(=O)c2ccco2)c2cc3ccccc3nc21`, the AC40 in test [1] was 4.12 µM.
With `O=C(O)c1ccccc1Nc1cccc(Cl)c1`, in test [2] (at 80 µM (top of the series)), the light induction (activation) was 0.041% (inactive).
As to `Cn1nc(NC(=O)c2ccco2)c2cc3ccc(C(C)(C)C)cc3nc21`, the light induction (activation) in test [2] (at 100 µM (top of the series)) was -0.007% (inactive).
The same measure, in the same setting: for `CN1CCC(C(=O)Nc2nnc(-c3ccc4c(c3)OCCO4)o2)CC1` the value was 0.046% (inactive).
In the case of `Cn1cnc(=O)c2ccccc21`, the light induction (activation) in test [2] (at 80 µM (top of the series)) is 0.063% (inactive).
`O=C(CC1CCCCC1)Nc1nnc(-c2cccnc2)o1`: the light induction (activation) in test [2] (at 80 µM (top of the series)) was -0.002% (inactive).
In the case of `CCCCCCCCCC(=O)C(O)CC` (configuration not stated), the AC40 in test [1] was 0.848 µM.
With `O=C(Cc1ccc(-c2ccccc2)cc1)NC1CCC1`, the AC40 in test [1] is 5.06 µM.
On the same count and under the same terms, for `CCn1nnnc1NC(C)c1ccc(N2CCCC2)cc1` (configuration not stated) the value was 34.7 µM.
With `O=C(Nc1nnc(-c2ccncc2)o1)C1CCC1`, the light induction (activation) in test [2] (at 100 µM (top of the series)) is 0.061% (inactive).
Regarding `Cc1cccc(-n2cnc(=O)c3ccccc32)c1`, the AC40 in test [1] is 0.199 µM.
Same read-out and setting: for `Cn1nc(NC(=O)c2ccco2)c2cccnc21` the value was 44.1 µM.
Regarding `C(=N\c1nnc(-c2ccc3c(c2)OCCO3)o1)/c1ccccc1`, in test [2] (at 100 µM (top of the series)), the light induction (activation) is 0.005% (inactive).
For `CC(C)(C)COC(=O)CSc1n[nH]c(=O)[nH]c1=O`, the AC40 in test [1] is 18.9 µM.
On to `Cc1ccc2cc3c(NC(=O)c4ccc(C)o4)nn(C)c3nc2c1`, for which the light induction (activation) in test [2] (at 100 µM (top of the series)) is 8.61% (inactive).
On to `O=C(CSc1nc2ccccc2c(=O)[nH]1)NC1CCCCC1`, for which, in test [2] (at 80 µM (top of the series)), the light induction (activation) was 0.011% (inactive).
Same read-out and setting: under `O=c1ncn(Cc2ccc(Cl)cc2)c2ccccc12` stands 3.21% (inactive).
On to `CCn1nnnc1N`, for which the light induction (activation) in test [2] (at 100 µM (top of the series)) is 0.029% (inactive).
On the same count and under the same terms, under `CC(C)c1ccc2cc3c(NC(=O)c4ccco4)nn(C)c3nc2c1` stands 0.362% (inactive).
Regarding `O=c1[nH]cnc2ccccc12`, the light induction (activation) in test [2] (at 80 µM (top of the series)) is 0.044% (inactive).
In the case of `O=C(Nc1nnc(-c2ccc3c(c2)OCCO3)o1)C(F)(F)c1ccccc1`, the light induction (activation) in test [2] (at 100 µM (top of the series)) was -0.027% (inactive).
The same measure, in the same setting: for `O=C(Cc1ccc(-c2ccccc2)cc1)NC1CNC1` the value was 0.006% (inactive).
`O=C(Nc1nnc(-c2ccc(Cl)cc2)o1)C1CCCCC1`: the light induction (activation) in test [2] (at 80 µM (top of the series)) is 0.835% (inactive).
On to `CCC(C)(C)C(=O)Nc1nnc(-c2ccc3c(c2)OCCO3)o1`, for which, in test [2] (at 80 µM (top of the series)), the light induction (activation) was -0.001% (inactive).
Regarding `O=c1ncn(-c2ccccc2)c2ccccc12`, the AC40 in test [1] is 0.361 µM.
Regarding `NC(=O)c1ccccc1Nc1cccc(Cl)c1`, the light induction (activation) in test [2] (at 80 µM (top of the series)) is 0.32% (inactive).
On the same count and under the same terms, for `O=C1C(=O)N(Cc2cccc(Cl)c2)c2ccccc21` the value was 0.237% (inactive); for `O=c1ncn(-c2cccc(Cl)c2)c2cccc(Cl)c12`, 0.081% (inactive).
`CC(C)(C)OC(=O)N1CCC(C(=O)Nc2nnc(-c3ccc4c(c3)OCCO4)o2)CC1`: the light induction (activation) in test [2] (at 100 µM (top of the series)) was 0.028% (inactive).
Same read-out and setting: for `O=C(Nc1nnc(-c2cccnc2)o1)C1CCCCC1` the value was 7.84% (inactive).
On to `CCOC(=O)c1ccccc1Nc1cccc(Cl)c1`, for which, in test [2] (at 80 µM (top of the series)), the light induction (activation) is 0.033% (inactive).
Take `O=c1ncn(-c2cccc(Cl)c2)c2ccc(Cl)cc12`: the AC40 in test [1] is 1.33 µM.
As to `COc1cccc(-n2cnc(=O)c3ccccc32)c1`, in test [2] (at 80 µM (top of the series)), the light induction (activation) was 12% (inactive).
For the molecule `Cn1nc(NC(=O)c2ccco2)c2ccccc21`, in test [2] (at 100 µM (top of the series)), the light induction (activation) was 3.2% (inactive).
Still for that read-out and setting: for `O=C(Nc1nnc(-c2ccc3c(c2)OCCO3)o1)C1CC1` the value was 0.003% (inactive).
As for `O=c1ncn(-c2ccccc2Cl)c2ccccc12`, the light induction (activation) in test [2] (at 80 µM (top of the series)) is 5% (inactive).
Still for that read-out and setting: under `CCc1nc(=O)c2ccccc2n1-c1cccc(Cl)c1` stands 0.68% (inactive).
Consider `Cc1ccc2c(c1)c(=O)ncn2-c1cccc(Cl)c1`, for which the AC40 in test [1] was 1.45 µM.
On to `O=c1ncn(-c2ccc(Cl)c(Cl)c2)c2ccccc12`, for which the light induction (activation) in test [2] (at 80 µM (top of the series)) is 0.121% (inactive).
Turning to `O=c1ncn(-c2ccc(F)c(Cl)c2)c2ccccc12`, the AC40 in test [1] was 5.38 µM.
On to `CCn1nnnc1/N=C/c1ccc(N2CCCCC2)cc1`, for which the light induction (activation) in test [2] (at 100 µM (top of the series)) is 1.21% (inactive).
Regarding `O=C(Nc1nnc(-c2ccc3c(c2)OCCO3)o1)C1CCC1`, the light induction (activation) in test [2] (at 100 µM (top of the series)) was 0.014% (inactive).
In the case of `Cc1cc(F)c2cc3c(NC(=O)c4ccco4)nn(C)c3nc2c1`, the AC40 in test [1] was 47 µM.
For `O=C(Cc1ccc(-c2ccccc2)cc1)NC1COC1`, the light induction (activation) in test [2] (at 100 µM (top of the series)) is 32.6% (inactive).
Take `O=C(Nc1nnc(-c2ccc3c(c2)OCCO3)o1)C1CCCCCC1`: the AC40 in test [1] is 9.05 µM.
With `O=c1ncn(-c2ccc(Cl)cc2)c2ccccc12`, the light induction (activation) in test [2] (at 80 µM (top of the series)) was 0.086% (inactive).
Same read-out and setting: for `O=C(Nc1nnc(-c2ccc3c(c2)CCCC3)o1)C1CCC1` the value was 0.009% (inactive).
For the molecule `O=C(Nc1nnc(-c2cccnc2)o1)C1CCC1`, the light induction (activation) in test [2] (at 100 µM (top of the series)) is -0.007% (inactive).
`O=C(Nc1nnc(-c2ccc3c(c2)OCCO3)o1)C1CCCCC1`: the AC40 in test [1] was 5.8 µM and 1.96 µM.
For the molecule `O=C(Nc1nnc(-c2ccccc2Cl)o1)C1CCCCC1`, the light induction (activation) in test [2] (at 100 µM (top of the series)) was 0.001% (inactive).
As for `O=C(CC1CCCCC1)Nc1nnc(-c2ccc3c(c2)CCCC3)o1`, the light induction (activation) in test [2] (at 35 µM (top of the series)) was 0.068% (inactive).
As to `COc1ccc2cc3c(NC(=O)c4ccco4)nn(C)c3nc2c1`, the AC40 in test [1] is 0.901 µM.
`NC(=O)c1ccccc1Nc1ccccc1`: the light induction (activation) in test [2] (at 80 µM (top of the series)) was 1.21% (inactive).
For the molecule `Cn1ccc(NC(=O)c2ccco2)n1`, in test [2] (at 100 µM (top of the series)), the light induction (activation) was 0.057% (inactive).
As to `Cc1nc(=O)c2ccccc2n1-c1cccc(Cl)c1`, the AC40 in test [1] was 18.1 µM.
Same read-out and setting: under `O=C(Cc1ccc(-c2ccccc2)cc1)N[C@@H]1CCOC1` (racemic) stands 31.2 µM; under `COc1ccc(-c2nnc(NC(=O)C3CCCCC3)o2)cc1`, > 100 µM (inactive).
Turning to `Cc1ccc2cc3c(NC(=O)c4cc5ccccc5o4)nn(C)c3nc2c1`, the light induction (activation) in test [2] (at 100 µM (top of the series)) is -0.001% (inactive).
`CCn1nnnc1NCc1ccc(C(C)C)cc1`: the AC40 in test [1] is 0.255 µM.
The same measure, in the same setting: for `COc1ccccc1-c1nnc(NC(=O)C2CCCCC2)o1` the value was > 100 µM (inactive); for `CCCCCCCCCC(=O)[C@H](O)CC` (racemic), 1.92 µM.
Consider `O=c1ncn(-c2cccc(Cl)c2)c2cc(Cl)ccc12`, for which the light induction (activation) in test [2] (at 80 µM (top of the series)) was 0.848% (inactive).
